# Where “and” joins values, the source holds several entries; their conditions need not be identical. Equal entries are not always repeated.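 Cells were grown in 96-well plates and exposed to each compound for 48 hours at five concentrations; endpoints were interpolated linearly between bracketing concentrations, or set to the highest concentration if not reached. GI50: concentration for 50% inhibition of growth. At the TGI there is no net growth.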
# Tests used:
# Assay in all cases: growth of human tumour cells (NCI), 48 h
# MDA-N = test system: MDA-N
# COLO 205 colon = test system: COLO 205 colon
# SK-MEL-2 melanoma = test system: SK-MEL-2 melanoma
# HCT-15 colon = test system: HCT-15 colon
# U251 CNS = test system: U251 CNS
# SNB-75 CNS = test system: SNB-75 CNS
# MDA-MB-231 breast = test system: MDA-MB-231 breast
# IGROV1 ovarian = test system: IGROV1 ovarian
# SR leukemia = test system: SR leukemia
# HCC-2998 colon = test system: HCC-2998 colon
# TK-10 renal = test system: TK-10 renal
# MALME-3M melanoma = test system: MALME-3M melanoma
# RPMI-8226 leukemia = test system: RPMI-8226 leukemia
# HL-60(TB) leukemia = test system: HL-60(TB) leukemia
# NCI-H460 lung = test system: NCI-H460 lung
# UACC-257 melanoma = test system: UACC-257 melanoma
# SN12C renal = test system: SN12C renal
# BT-549 breast = test system: BT-549 breast
# MOLT-4 leukemia = test system: MOLT-4 leukemia
SMILES,TGI (MDA-N) [µM],TGI (COLO 205 colon) [µM],TGI (SK-MEL-2 melanoma) [µM],TGI (HCT-15 colon) [µM],TGI (U251 CNS) [µM],TGI (SNB-75 CNS) [µM],TGI (MDA-MB-231 breast) [µM],TGI (IGROV1 ovarian) [µM],TGI (SR leukemia) [µM],TGI (HCC-2998 colon) [µM],TGI (TK-10 renal) [µM],TGI (MALME-3M melanoma) [µM],TGI (RPMI-8226 leukemia) [µM],TGI (HL-60(TB) leukemia) [µM],TGI (NCI-H460 lung) [µM],TGI (UACC-257 melanoma) [µM],TGI (SN12C renal) [µM],TGI (BT-549 breast) [µM],TGI (MOLT-4 leukemia) [µM],GI50 (SR leukemia)
O=c1oc2ccc(Cl)cc2cc1-c1cn2ccccc2n1,> 100,> 100,> 100,> 100,> 40.2,> 41.3,> 52.7,> 100,> 100,> 100,35.3,23.5,> 100,> 100,> 62.5,> 100,36.8,> 100,> 100,–
CN(C)c1ccc(-c2ccc(N(C)C)c3n[se]nc23)c2n[se]nc12,> 100,–,> 100,> 100,> 100,> 100,> 100,> 100,> 100,> 100,> 100,> 100,> 100,> 100,> 100,> 100,> 100,> 100,> 100,–
CC1(C)C2CC3C4CC5(Nc6ccccc6C5N41)[C@]3(C)CC2=O (stereo not given in full),> 50,> 50,> 50,> 50,> 50,> 50,> 50,> 50,> 50,> 50,> 50,> 50,> 50,> 50,> 50,> 50,> 50,> 50,> 50,–
Cc1sc(C)c2c1C(=O)CC2N (stereo not given),> 57.4,40.1,> 100,> 58.3,> 100,> 83.1,57,> 69,> 100,35.1,33.5,28.4,49.2,22.9,> 70.2,33.3,> 58.6,43.7,23.7,–
O=C1NC(=O)/C(=C/c2ccc(S(=O)(=O)N/N=C\C(O)C(O)C(O)C(O)CO)cc2)N1 (stereo not given),> 100,> 100,> 100,> 100,> 100,> 100,> 100,> 100,> 100,> 100,> 100,> 100,> 100,> 100,> 100,> 100,> 100,> 100,> 100,–
C=CC(Br)(CBr)CCC(Br)C(C)(C)Cl (stereo not given),8.34,4.36,29.5,6.53,2.92,8.72,6.95,12.8,3.78,12.8,6.33,19.2,2.31,2.6,6.06,10.6,16.5,21.8,4.05,–
N#Cc1c(O)c(N=Nc2ccc(Cl)cc2)c(=O)n2c1[nH]c1ccccc12,> 100,> 100,> 100,> 100,> 100,> 100,> 100,> 100,> 100,> 100,> 100,> 100,85.5,> 100,> 100,> 100,> 100,> 100,> 100,–
COc1ccc(N=Nc2c(C)c(C#N)c(=S)n(C3OC(CO)C(O)C(O)C3O)c2C)cc1 (stereo not given),> 100,> 100,> 100,> 100,> 100,> 100,> 100,> 100,87.1,–,> 100,–,> 100,> 100,> 100,> 100,–,> 100,84.6,–
CN1C=Cc2nccc3cc4c(c1c23)OCO4,8.62,> 42.8,11.3,> 66.3,32.4,5.3,29,> 39.2,10.9,30.4,35.4,0.836,30.7,> 100,> 33.1,16.9,30.2,7.36,> 93,–
CN(C)CC1CCCCCCCCCC(CN(C)C)C1=O (stereo not given),30.9,> 100,> 67.4,> 61.2,> 54.5,> 44.9,84.6,> 55.8,> 100,> 100,> 53.7,> 65.4,> 100,> 100,> 57,> 48.1,> 53.5,18.7,> 25.7,–
COC(=O)c1ccccc1/C=C1\Cc2c(C)cc(C)cc2C1=O,> 100,–,> 100,> 100,> 100,> 100,> 100,> 100,> 100,> 100,> 100,> 100,> 100,> 100,> 100,> 100,> 100,> 100,> 100,–
O=C(O)C1(Cc2ccc3c(c2)CCC3)Cc2ccccc2C1,> 100,> 100,> 100,> 100,> 100,> 100,> 100,> 100,> 100,> 100,> 100,> 100,> 100,> 100,> 100,> 100,> 100,> 100,> 100,–
COc1ccc2c(c1)CCCN2S(=O)(=O)c1ccccc1[N+](=O)[O-],26.7,> 79.8,72.4,> 97.4,> 92,> 87,> 100,> 100,> 78.8,84.5,97.1,> 86.3,71.3,37.1,> 87.9,> 100,> 100,66.7,67.3,–
Oc1cccc2cc(Br)cnc12,> 100,97.5,> 100,> 100,> 100,> 83.2,> 47.1,51.5,> 52,96.9,> 100,> 100,> 31.4,4,> 70.8,27.3,> 100,> 100,14.9,–
CCCCCCOc1ccc(C(=O)N(C)O)cc1,> 100,56,> 100,> 82.9,> 100,> 94.4,> 100,> 100,39.6,99,> 100,57.3,46.6,33.2,30,> 100,> 93.9,> 100,50.4,–
O=C(NC(Nc1ccc(F)cc1)(C(F)(F)F)C(F)(F)F)C(C(F)(F)F)C(F)(F)F,> 100,> 100,25.2,> 100,> 100,> 100,> 100,> 51.5,> 95.8,> 100,> 100,> 100,60,15.1,> 100,> 100,> 100,> 100,36.2,–
CN(C)C=NCCN1CCOCC1,> 100,> 100,> 100,> 100,> 100,> 100,> 100,> 100,> 100,–,> 100,> 100,> 100,> 100,–,> 100,> 100,> 100,> 100,–
CC(=O)c1cccc(NC(=O)C(=O)C(c2cnc3ccc([N+](=O)[O-])cc3n2)[N+](=O)[O-])c1 (stereo not given),> 100,> 100,> 100,> 100,> 100,> 100,> 100,> 100,> 100,> 100,> 100,> 100,> 100,> 100,> 100,> 100,> 100,> 100,> 100,–
CCCCCCCCCCCCOc1ccc(/C=C/C2=[N+](CCCl)CCO2)cc1,> 100,> 100,> 100,> 100,58.4,> 100,> 100,77.6,50.9,> 100,> 100,> 100,> 100,28.8,> 100,> 100,> 100,> 100,> 100,–
O=c1c2cc(Cl)ccc2[nH]c2cc(O)cc(O)c12,> 10,> 10,> 10,> 10,> 10,> 10,> 10,> 10,> 10,> 10,> 10,> 10,> 10,> 10,> 10,> 10,> 10,> 10,> 10,–
O=C(Cc1nc2ncccc2[nH]c1=O)c1c[nH]c2ccccc12,45.4,31.2,30.8,95.8,35.1,–,35.3,39,96.2,34.6,30.4,32.7,91.8,> 100,34.4,36.1,35.9,62,94.8,–
CCOC(=O)c1nc2ccccc2nc1Oc1cc(OC)c(OC)c(OC)c1,> 100,> 100,> 100,> 100,99.4,> 100,> 100,> 100,> 100,> 100,> 100,> 100,> 100,> 100,> 100,> 100,> 100,> 100,> 100,–
O=C(CN1CCOCC1)c1ccc2c(c1)oc(=O)n2CCN1CCCC1,> 100,> 100,> 100,> 100,> 100,> 100,> 100,> 100,> 100,–,> 100,> 100,> 100,> 100,> 100,> 100,> 100,> 100,> 100,–
O=C1c2ccccc2CC12Cc1ccccc1C2,> 100,> 100,> 100,> 100,> 100,90.3,> 100,> 100,83.5,70.3,97.4,> 100,> 100,48.4,> 100,54.2,> 100,> 100,> 100,–
Cc1nc2ccc(NC3OC(CO)C(O)C(O)C3O)cc2c(=O)n1-c1ccccc1 (stereo not given),> 100,> 100,> 100,> 100,> 100,> 100,> 100,> 100,> 100,> 100,> 100,> 100,> 100,> 100,> 100,> 100,> 100,> 100,> 100,11.1 µM and > 100 µM
O=C(NCCN1CCCCC1)c1ccc(I)cc1,> 100,> 100,> 100,> 100,> 100,> 100,> 100,> 100,> 100,> 100,> 100,> 100,> 100,–,> 100,> 100,> 100,> 100,> 100,–

# — PubChem BioAssay (NCI)
